Values quoted from earlier work in patent US20080305186A1, “Method and Composition for the Treatment of Cardiac Hypertrophy” (BOARD OF REGENTS, THE UNIVERSITY OF TEXAS SYSTEM, priority 2007, published 2008).

What was measured:
[1] = test system: isoproterenol-, angiotensin II- and aortic banding induced cardiac hypertrophy; conditions: cited from earlier work
Histone Deacetylase = conditions: cited from earlier work

## CCCC(CCC)C(=O)O [valproic acid]
[1]
  attenuation of cardiac hypertrophy: attenuate
Histone Deacetylase
  inhibition of Histone Deacetylase (HDAC): inhibit HDAC
